Where two headings read alike, the source gives them in different places.
How the values were obtained:
[1] = Phase 1b clinical study (NCT01814826): plasma PK of PEV in combination with AZA; type: in vivo, human; conditions: for Cmax / half-life / Tmax: human; for Cmax / half-life / Tmax / AUC24 / AUC48: plasma; for Cmax / AUC24 / AUC48: geometric mean; for half-life: mean; for Tmax: median
Protocol: Serial blood samples for the determination of PEV concentrations were obtained during the first cycle of treatment, at pre-specified time points before and up to 48 hours after the start of the infusion on days 1 and 5.

[2] = tested on: patients with relapsed/refractory AML and MDS; conditions: single-agent PEV, cited from earlier work
[3] = tested on: AML cells; conditions: cited from earlier work; for combination effect on viability: Combination Index and Blending Synergy Analysis
[4] = single-agent PEV, cited from earlier work
[5] = tested on: older unfit patients with increased marrow blasts (>30%); conditions: cited from earlier work
[6] = tested on: patients with AML; conditions: patients with AML on the Austrian AZA registry; cited from earlier work
[7] = intravenous, dose escalation, 20 mg/m^2 cohort (N = 6), cycle 1, day 1
[8] = intravenous, dose escalation, 20 mg/m^2 cohort (N = 6), cycle 1, day 5
[9] = intravenous, dose escalation, 30 mg/m^2 cohort (N = 3), cycle 1, day 1
[10] = iv, MTD expansion, IV AZA cohort (N = 26), cycle 1, day 1
[11] = iv, MTD expansion, IV AZA cohort (N = 26), cycle 1, day 5
[12] = sc, MTD expansion, SC AZA cohort (N = 28), cycle 1, day 1
[13] = sc, MTD expansion, SC AZA cohort (N = 28), cycle 1, day 5
[14] = dose escalation, 20 mg/m^2 cohort (N = 6), cycle 1, day 1
[15] = dose escalation, 20 mg/m^2 cohort (N = 6), cycle 1, day 5
[16] = dose escalation, 30 mg/m^2 cohort (N = 3), cycle 1, day 1
[17] = AZA-AML-001, randomized AZA or CCR

Q: What does the source list for `NS(=O)(=O)OC[C@@H]1C[C@@H](n2ccc3c(N[C@H]4CCc5ccccc54)ncnc32)C[C@@H]1O` [PEV, ((1S,2S,4R)-4-{4-[(1S)-2,3-dihydro-1H-inden-1-ylamino]-7H-pyrrolo[2,3-d]pyrimidin-7-yl}-2-hydroxycyclopentyl)methyl sulfamate]?
A: observed accumulation ratio Rac ([1]; day 5 versus day 1, five days of continuous dosing with AZA): ~1; Cmax [1, 7]: 158 ng/mL; half-life [1, 7]: 7.8 h; Tmax [1, 7]: 1.06 h; Cmax [1, 8]: 165 ng/mL; half-life [1, 8]: 7.98 h; Tmax [1, 8]: 0.99 h; Cmax [1, 9]: 299 ng/mL; half-life [1, 9]: 7.39 h; Tmax [1, 9]: 0.98 h; Cmax [1, 10]: 155 ng/mL; half-life [1, 10]: 7.45 h; Tmax [1, 10]: 1.01 h; Cmax [1, 11]: 164 ng/mL; half-life [1, 11]: 8.07 h; Tmax [1, 11]: 1 h; Cmax [1, 12]: 152 ng/mL; half-life [1, 12]: 7.3 h; Tmax [1, 12]: 1 h; Cmax [1, 13]: 148 ng/mL; half-life [1, 13]: 7.89 h; Tmax [1, 13]: 0.98 h; AUC24 ([1]; MTD expansion, IV AZA cohort (N = 26), cycle 1, day 1): 861 ng·h/mL; AUC24 ([1]; MTD expansion, IV AZA cohort (N = 26), cycle 1, day 5): 921 ng·h/mL; AUC48 ([1]; MTD expansion, IV AZA cohort, N = 12, cycle 1, day 1): 976 ng·h/mL; AUC48 ([1]; MTD expansion, IV AZA cohort, N = 13, cycle 1, day 5): 1100 ng·h/mL; AUC24 ([1]; MTD expansion, SC AZA cohort (N = 28), cycle 1, day 1): 890 ng·h/mL; AUC24 ([1]; MTD expansion, SC AZA cohort (N = 28), cycle 1, day 5): 926 ng·h/mL; AUC48 ([1]; MTD expansion, SC AZA cohort, N = 11, cycle 1, day 1): 1000 ng·h/mL; AUC48 ([1]; MTD expansion, SC AZA cohort, N = 18, cycle 1, day 5): 1100 ng·h/mL; AUC24 [1, 14]: 990 ng·h/mL; AUC48 [1, 14]: 1110 ng·h/mL; AUC24 [1, 15]: 986 ng·h/mL; AUC48 [1, 15]: 1090 ng·h/mL; AUC24 [1, 16]: 1640 ng·h/mL; AUC48 [1, 16]: 1770 ng·h/mL; PEV PK in the presence of AZA compared with historical single-agent data ([1]; systemic exposure): not altered; DLTs at starting dose (PEV 20 mg/m^2 (n=6) with AZA, dose escalation): absence of DLTs; final posterior estimate of probability of toxicity (PEV 20 mg/m^2, CRM model): 24%; DLTs in the MTD expansion cohort (PEV 20 mg/m^2 with AZA (n=55), grade ≥3 transaminase elevation): two additional patients experienced DLTs; patients who experienced a DLT (PEV 30 mg/m^2 dose level (n=3) with AZA, grade 2 bilirubin elevation, grade 4 AST elevation): two of the three; MTD for PEV (combined with AZA in standard doses, IV days 1, 3, 5 of 28-day cycles): 20 mg/m^2; Overall response rate (ORR) ([2]; schedule A, patients treated at or below the MTD (4/23)): 17%; Overall response rate (ORR) ([2]; schedule B, patients treated at or below the MTD (2/19)): 10%; DNA damage and cell death ([3]; PEV combined with AZA compared with either agent alone, immunoblotting and flow cytometry): significantly increased DNA damage and cell death; combination effect on viability ([3]; PEV with AZA): synergistically lethal; combination effect on viability ([3]; PEV with decitabine): synergistically lethal; maximum tolerated dose (MTD) ([4]; schedule A: 1-hour IV infusion days 1, 3, 5 every 21 days): 59 mg/m^2; dose-limiting toxicity ([4]; schedule A): elevation of alanine aminotransferase (ALT)/aspartate aminotransferase (AST); maximum tolerated dose (MTD) ([4]; schedule B: days 1, 4, 8, 11 every 21 days): 83 mg/m^2; dose-limiting toxicity ([4]; schedule B): Multi-organ failure (MOF)

Q: Which 1-year survival [5, 17] does the source give for `Nc1ncn([C@@H]2O[C@H](CO)[C@@H](O)[C@H]2O)c(=O)n1` [AZA, azacitidine] here?
A: The 1-year survival was 46.5%.

Q: And the “median OS” value [5, 17]?
A: Its value is 10.4 months.

Q: What about the response rates [5, 17] of the same compound?
A: The response rates was 27.8%.

Q: What about the “composite CR/PR rate” value ([5]; patients randomized to AZA alone, large randomized French study (ref 6)) of the same compound?
A: Its value is 29%.

Q: And the “median OS” value [6]?
A: The value was ~10 months.
